This is an account of results in PubChem BioAssay (NCI).

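1) Cells in 96-well plates. 2) Compound, 48 h, 5 concentrations. 3) Linear interpolation between surrounding doses. 4) Unreached endpoint = highest concentration. The concentration for full growth arrest is given as TGI.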 Where a SMILES comes first, the peptide text is derived from it. [ ]: non-standard residue; d: D form. The star is where a group is joined. Phe(4-NO2) = N[CH](Cc1ccc([N+](=O)[O-])cc1)C(=O)O; Boc = CC(C)(C)OC(=O)*; OtBu = CC(C)(C)O* Some results are limits rather than exact numbers.

What all share (assay): growth of human tumour cells (NCI), 48 h
The test system of assay [1] is SNB-19 CNS.
In assay [2] the test system is CCRF-CEM leukemia.
Assay [3] has as its system OVCAR-5 ovarian.
For assay [4], the system named is MDA-MB-231 breast.
Assay [5] concerns 786-0 renal.
Assay [6] has as its system RPMI-8226 leukemia.
The subject of assay [7] is HOP-92 NSCLC.
Assay [8] has as its system U251 CNS.
Assay [9] has as its system A498 renal.
Assay [10] has as its system OVCAR-4 ovarian.

Take `COC(=O)C(Cc1ccc([N+](=O)[O-])cc1)NC(=O)C(CC(=O)OC(C)(C)C)NC(=O)OC(C)(C)C` (stereo not given) (Boc-Asp(OtBu)-[Phe(4-NO2)]-OMe; configuration not given here): the TGI in [1] was more than 100 µM; in [2] it was more than 100 µM; in assay [3] it was more than 100 µM; in assay [4], 68.4 µM; in [5], more than 100 µM; in [6] it was more than 100 µM. For the same molecule, the TGI in assay [7], in assay [8], in [9] and in [10] was more than 100 µM throughout.
Take `BrCC[P+](c1ccccc1)(c1ccccc1)c1ccccc1`: the TGI in [1] turned out to be 62.1 µM; in assay [2], 12.2 µM; in assay [3] it was 26.8 µM; in [4], 34.8 µM; in assay [5], 10.4 µM; in assay [6] it was 8.08 µM. Moreover, the TGI in assay [7] turned out to be 13.1 µM; in assay [8], 13.2 µM; in assay [9], 41.3 µM; in assay [10], 23.1 µM.
`CN(Cc1nc2c(N)nc(N)nc2nc1N)c1ccc(C(=O)NC(CCC(=O)O)C(=O)O)cc1` (stereo not given): the TGI in assay [1], in assay [2], in [3], in [4], in assay [5] and in assay [6] was more than 100 µM throughout. In addition, the TGI in assay [7], in assay [8], in [9] and in [10] was more than 100 µM in each case.
On to `C/C(=N\O)c1ccc(Nc2c3ccccc3nc3occc23)cc1`, for which the TGI in assay [1] is more than 50 µM; in assay [2], 1.89 µM; in assay [3] it was more than 50 µM; in assay [4] it was more than 39.3 µM; in assay [5], 3.3 µM; in assay [6] it was 3.26 µM. For the same molecule, the TGI in assay [7] is more than 50 µM; in [8], more than 24.6 µM; in [9], more than 10 µM; in [10] it was more than 12.2 µM.
Consider `COc1ccccc1OC/C(N=Cc1ccncc1)=N/NC(=O)c1ccncc1`, for which the TGI in [1], in [2], in assay [3], in assay [4], in assay [5] and in [6] was more than 100 µM in each case. Moreover, the TGI in [7], in assay [8], in [9] and in assay [10] was more than 100 µM in each case.
